Laboratory results from the NIST ThermoML archive (doi:10.1021/je0504459).

Assay: xn = mol fraction of the nth substance listed
Settings: 101 kPa, Liquid; for speed of sound: Sing-around technique in a fixed-path interferometer

ClC(Cl)Cl [trichloromethane] + CCCCCCO
Settings	kinematic viscosity, 303.15 K [m2/s]	kinematic viscosity, 313.15 K [m2/s]	mass density, 303.15 K [kg/m3]	mass density, 313.15 K [kg/m3]	speed of sound, 303.15 K [m/s]	speed of sound, 313.15 K [m/s]
x1 = 0.0497	4.36e-06	3.21e-06	833.07	825.31	1271	1238
x1 = 0.1004	3.88e-06	2.89e-06	855.62	847.51	1253	1220
x1 = 0.15	3.45e-06	2.59e-06	878.54	870.06	1236	1201
x1 = 0.2006	3.04e-06	2.31e-06	902.79	893.94	1217	1182
x1 = 0.2506	2.67e-06	2.05e-06	927.71	918.4	1198	1163
x1 = 0.3005	2.34e-06	1.83e-06	953.48	943.71	1180	1143
x1 = 0.3497	2.04e-06	1.6e-06	980.04	969.85	1161	1125
x1 = 0.4004	1.77e-06	1.41e-06	1008.41	997.66	1142	1105
x1 = 0.4516	1.53e-06	1.23e-06	1038.38	1027.09	1123	1086
x1 = 0.4996	1.34e-06	1.09e-06	1067.63	1055.84	1106	1069
x1 = 0.552	1.14e-06	9.5e-07	1100.94	1088.53	1087	1051
x1 = 0.6	9.87e-07	8.33e-07	1133.01	1120	1070	1034
x1 = 0.654	8.52e-07	7.35e-07	1170.75	1157	1052	1016
x1 = 0.7001	7.46e-07	6.49e-07	1204.57	1190.18	1038	1002
x1 = 0.753	6.5e-07	5.82e-07	1245.39	1230.25	1023	986
x1 = 0.7992	5.82e-07	5.22e-07	1282.69	1266.83	1010	974
x1 = 0.8511	5.08e-07	4.7e-07	1327.07	1310.35	997	961
x1 = 0.8996	4.5e-07	4.26e-07	1370.59	1352.95	987	950
x1 = 0.9502	4.06e-07	3.81e-07	1418.68	1400.1	977	941
x1 = 1	3.63e-07	3.39e-07	1469.21	1449.74	969	934

ClC(Cl)Cl [trichloromethane] + CCCCCO
Settings	kinematic viscosity, 303.15 K [m2/s]	kinematic viscosity, 313.15 K [m2/s]	mass density, 303.15 K [kg/m3]	mass density, 313.15 K [kg/m3]	speed of sound, 303.15 K [m/s]	speed of sound, 313.15 K [m/s]
x1 = 0.0603	3.29e-06	2.56e-06	838.65	830.58	1241	1206
x1 = 0.1009	3.02e-06	2.35e-06	859.39	850.98	1226	1191
x1 = 0.1484	2.7e-06	2.12e-06	884.22	875.42	1209	1173
x1 = 0.1999	2.37e-06	1.88e-06	911.83	902.58	1190	1154
x1 = 0.2517	2.08e-06	1.66e-06	940.34	930.67	1171	1135
x1 = 0.2999	1.83e-06	1.48e-06	967.6	957.42	1153	1117
x1 = 0.3492	1.61e-06	1.31e-06	996.23	985.58	1135	1099
x1 = 0.3998	1.39e-06	1.15e-06	1026.46	1015.29	1118	1082
x1 = 0.45	1.22e-06	1.02e-06	1057.32	1045.59	1101	1065
x1 = 0.5004	1.07e-06	9.03e-07	1089.21	1076.95	1084	1048
x1 = 0.5498	9.31e-07	8.02e-07	1121.44	1108.55	1068	1032
x1 = 0.6001	8.27e-07	7.22e-07	1155.25	1141.78	1053	1017
x1 = 0.6513	7.24e-07	6.43e-07	1190.8	1176.65	1038	1002
x1 = 0.7003	6.57e-07	5.85e-07	1225.93	1211.12	1025	989
x1 = 0.751	5.85e-07	5.3e-07	1263.53	1247.97	1012	977
x1 = 0.8	5.3e-07	4.83e-07	1301.08	1284.81	1001	966
x1 = 0.8503	4.87e-07	4.48e-07	1341.02	1323.97	991	956
x1 = 0.9004	4.42e-07	4.11e-07	1382.24	1364.37	982	947
x1 = 0.952	4.05e-07	3.75e-07	1426.4	1407.56	974	938
x1 = 1	3.63e-07	3.39e-07	1469.21	1449.74	969	934

ClC(Cl)Cl [trichloromethane] + CCCCCCCO
Settings	kinematic viscosity, 303.15 K [m2/s]	kinematic viscosity, 313.15 K [m2/s]	mass density, 303.15 K [kg/m3]	mass density, 313.15 K [kg/m3]	speed of sound, 303.15 K [m/s]	speed of sound, 313.15 K [m/s]
x1 = 0.0487	5.58e-06	4.17e-06	833.37	825.81	1296	1262
x1 = 0.1002	4.98e-06	3.74e-06	853.69	845.75	1277	1244
x1 = 0.1498	4.41e-06	3.34e-06	874.2	865.8	1260	1226
x1 = 0.2006	3.86e-06	2.95e-06	896.15	887.32	1241	1207
x1 = 0.2516	3.38e-06	2.61e-06	919.27	909.96	1222	1187
x1 = 0.3003	2.93e-06	2.29e-06	942.39	932.57	1204	1168
x1 = 0.3538	2.52e-06	1.99e-06	969.09	958.73	1183	1147
x1 = 0.4003	2.18e-06	1.75e-06	993.52	982.67	1165	1129
x1 = 0.4466	1.89e-06	1.54e-06	1019.1	1007.69	1147	1111
x1 = 0.5001	1.61e-06	1.32e-06	1050.23	1038.22	1126	1091
x1 = 0.5517	1.35e-06	1.13e-06	1082.09	1069.43	1107	1072
x1 = 0.6002	1.17e-06	1e-06	1113.83	1100.51	1089	1054
x1 = 0.6539	9.76e-07	8.45e-07	1151.17	1137.19	1070	1035
x1 = 0.6994	8.51e-07	7.41e-07	1184.84	1170.19	1054	1019
x1 = 0.7449	7.4e-07	6.59e-07	1220.55	1205.18	1039	1004
x1 = 0.8	6.33e-07	5.69e-07	1266.83	1250.5	1022	987
x1 = 0.8465	5.58e-07	5.09e-07	1308.67	1291.64	1008	972
x1 = 0.9003	4.81e-07	4.45e-07	1360.81	1342.82	993	957
x1 = 0.9521	4.2e-07	3.88e-07	1414.86	1396.16	979	943
x1 = 1	3.63e-07	3.39e-07	1469.21	1449.74	969	934
